Assay results as given in ChEMBL document CHEMBL1201862, “PubChem BioAssay data set” (2004).
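Step 1: Grow cells in 96-well plates. Step 2: Expose to compound for 48 hours at 5 concentrations. Step 3: Interpolate endpoints linearly; if unreached, use highest concentration. GI50: concentration for 50% inhibition of growth.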 Calls of active or inactive are those of the source. Cut-off read from the data, not from the text of the source: active = GI50 up to about 1.1 µM and inactive = higher.

Experiments:
Assay in all cases: DTP human tumour cell line panel, 48 h
NCI-H23 = system: NCI-H23
OVCAR-5 = system: OVCAR-5
COLO 205 = system: COLO 205
RXF 393 = system: RXF 393
Hs-578T = system: Hs-578T
HT-29 = system: HT-29
NCI-H460 = system: NCI-H460
SW-620 = system: SW-620
Malme-3M = system: Malme-3M
RPMI-8226 = system: RPMI-8226
MDA-MB-435 = system: MDA-MB-435
SK-MEL-5 = system: SK-MEL-5
HCC 2998 = system: HCC 2998
T47D = system: T47D
LXFL 529 = system: LXFL 529
DMS-114 = system: DMS-114
DMS-273 = system: DMS-273
UACC-257 = system: UACC-257
KM-20L2 = system: KM-20L2
M19-MEL = system: M19-MEL

Measured: GI50

CC(=O)C1=C(C)NC(=C(C#N)C#N)C(C#N)=C1
inactive: NCI-H23 > 100 µM | OVCAR-5 > 100 µM | COLO 205 > 100 µM | RXF 393 > 100 µM | Hs-578T > 100 µM | HT-29 > 100 µM | NCI-H460 > 100 µM | SW-620 > 100 µM | Malme-3M > 100 µM | RPMI-8226 > 100 µM | MDA-MB-435 > 100 µM | SK-MEL-5 > 100 µM | HCC 2998 > 100 µM | T47D > 100 µM

CC(C)OP(=O)(OC(C)C)/C(=N/Nc1ccc([N+](=O)[O-])cc1)Nc1ccc(N/C(=N\Nc2ccc([N+](=O)[O-])cc2)P(=O)(OC(C)C)OC(C)C)cc1
inactive: NCI-H23 13.7 µM | OVCAR-5 71.8 µM | COLO 205 5.2 µM | LXFL 529 19.6 µM | NCI-H460 2.31 µM | DMS-114 9.51 µM | Malme-3M > 100 µM | RPMI-8226 5.24 µM | DMS-273 5.58 µM | SK-MEL-5 6.98 µM | UACC-257 37.2 µM | HCC 2998 2.65 µM | KM-20L2 14.9 µM | M19-MEL 82.4 µM

COC(=O)C(NC(=O)c1ccccc1)C(c1c(O)cc(O)cc1O)P(=O)(OC)OC (centres undefined)
inactive: NCI-H23 69.5 µM | OVCAR-5 > 100 µM | COLO 205 > 100 µM | LXFL 529 54 µM | HT-29 > 100 µM | NCI-H460 95.3 µM | DMS-114 > 100 µM | SW-620 > 100 µM | RPMI-8226 95.9 µM | DMS-273 42.5 µM | SK-MEL-5 > 100 µM | UACC-257 > 100 µM | HCC 2998 > 100 µM | KM-20L2 > 100 µM | M19-MEL > 100 µM

O=C(O)c1ccccc1CN1CCCC(C(=O)O)C1 (centres undefined)
inactive: NCI-H23 > 100 µM | OVCAR-5 > 100 µM | COLO 205 > 100 µM | RXF 393 > 100 µM | Hs-578T > 100 µM | HT-29 > 100 µM | NCI-H460 > 100 µM | SW-620 > 100 µM | Malme-3M > 100 µM | RPMI-8226 > 100 µM | MDA-MB-435 > 100 µM | SK-MEL-5 > 100 µM | UACC-257 > 100 µM | T47D > 100 µM

COC(=O)C1=C(C(=O)OC)C23CC1C1C(C(=O)OC)=C(C(=O)OC)C12C1C=CC3C2C(=O)OC(=O)C21 (centres undefined)
inactive: NCI-H23 37.8 µM | OVCAR-5 > 100 µM | COLO 205 28.3 µM | LXFL 529 39.6 µM | RXF 393 38.9 µM | HT-29 68.7 µM | NCI-H460 34.7 µM | DMS-114 26.6 µM | SW-620 37.5 µM | Malme-3M 44.5 µM | RPMI-8226 32.3 µM | DMS-273 36.6 µM | SK-MEL-5 41.8 µM | UACC-257 45.2 µM | HCC 2998 66.7 µM | KM-20L2 > 100 µM | M19-MEL 50.9 µM

NC(=O)SCC(=O)Nc1ccc2ncccc2c1
inactive: NCI-H23 > 100 µM | OVCAR-5 > 100 µM | COLO 205 > 100 µM | Hs-578T 67.3 µM | HT-29 > 100 µM | NCI-H460 85.3 µM | SW-620 > 100 µM | Malme-3M 56.1 µM | RPMI-8226 23.6 µM | MDA-MB-435 48.3 µM | SK-MEL-5 43.4 µM | UACC-257 71.3 µM | HCC 2998 > 100 µM

COC(=O)CCC(=O)c1ccc2c(c1)CCC2
inactive: NCI-H23 > 100 µM | OVCAR-5 > 100 µM | RXF 393 > 100 µM | Hs-578T > 100 µM | HT-29 > 100 µM | NCI-H460 > 100 µM | SW-620 > 100 µM | Malme-3M > 100 µM | RPMI-8226 > 100 µM | MDA-MB-435 > 100 µM | SK-MEL-5 > 100 µM | UACC-257 > 100 µM | HCC 2998 > 100 µM | T47D > 100 µM

O=C1C[C@@H]2[C@@H](C=CC23CCCC3)N1O
inactive: NCI-H23 > 100 µM | OVCAR-5 > 100 µM | COLO 205 > 100 µM | LXFL 529 > 100 µM | RXF 393 > 100 µM | HT-29 > 100 µM | NCI-H460 > 100 µM | DMS-114 > 100 µM | SW-620 > 100 µM | Malme-3M > 100 µM | RPMI-8226 > 100 µM | DMS-273 > 100 µM | SK-MEL-5 > 100 µM | UACC-257 > 100 µM | HCC 2998 > 100 µM | KM-20L2 > 100 µM | M19-MEL > 100 µM

N#CCCN(CCC#N)c1ccc(C(=N/c2ccc(Cl)cc2)/N=N/c2ccc(Cl)cc2)cc1
inactive: NCI-H23 17.5 µM | OVCAR-5 17.2 µM | COLO 205 16.2 µM | RXF 393 14.3 µM | Hs-578T 19.4 µM | HT-29 19.8 µM | NCI-H460 13.4 µM | SW-620 17.7 µM | RPMI-8226 47.2 µM | MDA-MB-435 18.2 µM | SK-MEL-5 10.1 µM | UACC-257 15 µM | HCC 2998 12.8 µM | T47D 7.6 µM

CCCCNC(=S)Nc1nc(C(=O)NNC(=S)NC2CCCCC2)cs1
inactive: NCI-H23 > 100 µM | OVCAR-5 > 100 µM | COLO 205 > 100 µM | HT-29 > 100 µM | SW-620 > 100 µM | Malme-3M > 100 µM | RPMI-8226 > 100 µM | MDA-MB-435 > 100 µM | SK-MEL-5 67.6 µM | UACC-257 > 100 µM | HCC 2998 > 100 µM | T47D > 100 µM

ClCCCN1CCN(CCCl)CC1
inactive: NCI-H23 69.8 µM | OVCAR-5 250 µM | COLO 205 161 µM | RXF 393 166 µM | Hs-578T 305 µM | HT-29 242 µM | NCI-H460 6.24 µM | DMS-114 28.9 µM | SW-620 252 µM | Malme-3M 142 µM | RPMI-8226 205 µM | MDA-MB-435 282 µM | DMS-273 28.9 µM | SK-MEL-5 239 µM | UACC-257 284 µM | HCC 2998 346 µM | T47D 95.5 µM | KM-20L2 269 µM | M19-MEL 226 µM

Cc1ccn2c(=O)cc(-c3ccccc3)nc2c1
inactive: NCI-H23 > 100 µM | OVCAR-5 > 100 µM | COLO 205 > 100 µM | RXF 393 > 100 µM | Hs-578T > 100 µM | HT-29 > 100 µM | NCI-H460 > 100 µM | SW-620 > 100 µM | Malme-3M > 100 µM | RPMI-8226 > 100 µM | MDA-MB-435 > 10 µM | SK-MEL-5 > 100 µM | UACC-257 > 100 µM | HCC 2998 > 100 µM | T47D 49.7 µM

O=S(O)CCCCCSSSCCCCCS(=O)O
inactive: NCI-H23 29.8 µM | OVCAR-5 85.5 µM | LXFL 529 11.4 µM | RXF 393 14.4 µM | HT-29 > 100 µM | NCI-H460 > 100 µM | Malme-3M 6.5 µM | UACC-257 24.5 µM | HCC 2998 > 100 µM | KM-20L2 > 100 µM | M19-MEL 22.1 µM

O=S(=O)(N=S(c1ccccc1)c1ccccc1)c1ccccc1
inactive: NCI-H23 > 100 µM | OVCAR-5 > 100 µM | COLO 205 > 100 µM | RXF 393 > 100 µM | HT-29 > 100 µM | NCI-H460 > 100 µM | SW-620 > 100 µM | Malme-3M > 100 µM | RPMI-8226 > 100 µM | MDA-MB-435 > 100 µM | UACC-257 > 100 µM | T47D > 100 µM

Oc1c(C(Nc2cccc3cccnc23)c2ccccc2)ccc2cccnc12 (centres undefined)
inactive: NCI-H23 5.43 µM | OVCAR-5 12.9 µM | COLO 205 6.25 µM | LXFL 529 4.13 µM | NCI-H460 3.33 µM | DMS-114 2.65 µM | SW-620 4.05 µM | Malme-3M 3.49 µM | RPMI-8226 3.88 µM | DMS-273 5.16 µM | UACC-257 4.38 µM | HCC 2998 14.2 µM | KM-20L2 3.77 µM | M19-MEL 5.53 µM

NC(CCCCO)C(=O)O (centres undefined)
inactive: NCI-H23 > 100 µM | OVCAR-5 > 100 µM | COLO 205 > 100 µM | RXF 393 > 100 µM | Hs-578T > 100 µM | HT-29 > 100 µM | NCI-H460 > 100 µM | SW-620 > 100 µM | Malme-3M > 100 µM | RPMI-8226 > 100 µM | MDA-MB-435 > 100 µM | SK-MEL-5 > 100 µM | UACC-257 > 100 µM | HCC 2998 > 100 µM | T47D > 100 µM

N#Cc1c(N)nc(Nc2cccc3ccccc23)c(C#N)c1C#N
inactive: NCI-H23 3.61 µM | OVCAR-5 > 10 µM | COLO 205 > 10 µM | RXF 393 > 10 µM | Hs-578T 2.43 µM | HT-29 6.11 µM | NCI-H460 2.97 µM | SW-620 3.48 µM | Malme-3M > 10 µM | RPMI-8226 2.61 µM | MDA-MB-435 3.31 µM | SK-MEL-5 4.43 µM | HCC 2998 8.43 µM | T47D 8.09 µM

Cc1ccc(-c2n[nH]c(=O)n2/N=C\c2ccccc2)cc1
inactive: NCI-H23 68.9 µM | OVCAR-5 > 100 µM | COLO 205 74.1 µM | RXF 393 24.7 µM | Hs-578T 23.7 µM | HT-29 > 91 µM | NCI-H460 33.6 µM | SW-620 > 100 µM | Malme-3M > 91.2 µM | RPMI-8226 > 86.3 µM | MDA-MB-435 > 100 µM | SK-MEL-5 75.2 µM | UACC-257 > 100 µM | HCC 2998 > 87.3 µM | T47D 36.6 µM
